Test results: patent US20060183909A1, “Compositions derived from quinoline and quinoxaline, preparation and use thereof” (priority 2001, published 2006)

Tested on: xanthurenic acid receptor
Assay: Screening: displacement of [3H]-XA binding to synaptic membranes at a fixed concentration
Method: If this concentration produces the same or greater displacement than the same concentration of non-radiolabelled XA, then an IC50 is determined. […] The incubation time is 25 min. […] The filters are placed in scintillation vials to which 5 ml of Rotiszint® (Roth) are added and the vials are counted in a Beckman LS6000sc liquid scintillation counter. Specific binding is given as the difference between total binding and nonspecific binding. The percentage inhibition of binding that the synthetic compounds produce is calculated for each compound in relation to its positive control.

[1] = compound at 10 μM, 200 nM [3H]-XA, synaptic membranes, xanthurenic acid set arbitrarily to 100%

| SMILES | % inhibition of XA binding at 10 μM* [1] | further results |
| --- | --- | --- |
| COc1cccc2ccc(C(=O)O)nc12 | 13% |  |
| Nc1cc(C(=O)O)nc2c(N)cccc12 [17'b, 4,8-diamino-quinoline-2-carboxylic acid] | 7.7% |  |
| O=C(O)c1cc(O)c2c(Br)ccc(O)c2n1 [Compound 3c, 4,8-dihydroxy-5-bromo-quinoline-2-carboxylic acid] | 42% |  |
| Cc1ccc(O)c2nc(C(=O)O)cc(O)c12 [Compound 3e, 4,8-dihydroxy-5-methyl-4-quinoline-2-carboxylic acid] | 48% |  |
| O=C(O)c1cc(O)c2c(CO)ccc(O)c2n1 [Compound 3g, 4,8-dihydroxy-5-hydroxymethyl-4-quinoline-2-carboxylic acid] | 84% |  |
| Cc1cc(O)c2nc(C(=O)O)cc(O)c2c1 [Compound 3n, 4,8-dihydroxy-6-methyl-quinoline-2-carboxylic acid] | 21.2% |  |
| Cc1ccc(N)c2nc(C(=O)O)cc(O)c12 [Compound 3v, 4-hydroxy-5-methyl-8-amino-quinoline-2-carboxylic acid] | 23.4% |  |
| Cc1cc(N)c2nc(C(=O)O)cc(O)c2c1 [Compound 3w, 4-hydroxy-6-methyl-8-amino-quinoline-2-carboxylic acid] | 0% |  |
| O=C(O)c1cc(O)c2cccc(Br)c2n1 [Compound 3x, 4-hydroxy-8-bromo-quinoline-2-carboxylic acid] | Potentiation | effect on xanthurenic acid binding, in words: increase the binding of xanthurenic acid; real increase in total binding (potentiation) (compound at 10 μM, 200 nM [3H]-XA, synaptic membranes): (+200% real increase |
| O=C(O)c1cc(O)c2cccc(OCc3ccccc3)c2n1 [Compound 3y, 4-hydroxy-8-benzyloxy-quinoline-2-carboxylic acid] | 120% |  |
| Nc1cccc2ccc(C(=O)O)nc12 [Compound 4f, 8-amino-quinoline-2-carboxylic acid] | 0% |  |
| COc1ccc(Br)c2ccc(C(=O)O)nc12 [Compound 4g, 8-methoxy-5-bromo-quinoline-2-carboxylic acid] | 0% |  |
| O=C(O)c1cc(-c2ccccc2)c2cccc(O)c2n1 [Compound 10b, 8-hydroxy-4-phenyl-quinoline-2-carboxylic acid] | 94.5% |  |
| Cc1ccc(S(=O)(=O)Nc2cc(C(=O)O)nc3c(O)cccc23)cc1 [Compound 16a, 8-hydroxy-4-(toluene-4-sulfonylamino)-quinoline-2-carboxylic acid] |  | % inhibition of XA binding at 50 μM* (compound at 50 μM, 200 nM [3H]-XA, synaptic membranes, xanthurenic acid set arbitrarily to 100%): 77% |
| O=C(O)c1cc(O)c2c(-c3ccccc3)ccc(O)c2n1 [Compound 19a, 4,8-dihydroxy-5-phenyl-quinoline-2-carboxylic acid] | 1.8% |  |
| COc1ccc(-c2cc(O)c3nc(C(=O)O)cc(O)c3c2)cc1 [Compound 19g, 4,8-dihydroxy-6-(4-methoxy-phenyl)-quinoline-2-carboxylic acid] | 54.5% |  |
| CCCc1cc(O)c2nc(C(=O)O)cc(O)c2c1 [Compound 19r, 4,8-dihydroxy-6-propyl-quinoline-2-carboxylic acid] | 58.1% |  |
| O=C(O)c1ccc2c(-c3ccccc3)ccc(O)c2n1 [Compound 19t, 8-hydroxy-5-phenyl-quinoline-2-carboxylic acid] | 50% |  |
| O=C(O)c1cc(O)c2cc(CCc3ccccc3)cc(O)c2n1 [Compound 22a, 4,8-dihydroxy-6-phenethyl-quinoline-2-carboxylic acid] | 54% |  |
| CCCCCCCc1cc(O)c2nc(C(=O)O)cc(O)c2c1 [Compound 22b, 4,8-dihydroxy-6-heptyl-quinoline-2-carboxylic acid] | 38% |  |
